Laboratory results from patent publication US7259140B2, “Heparin-binding peptides and uses thereof” (Thomas Jefferson University, priority 2003, dated 2007).
Bridge positions count the residues as written; N and C are the ends. Ends that are not written are not given here. Peptide text beside a SMILES is read from it.

Columns and labels:
[1] = tested on: Lovenox ® Activity in Blood from Patients Treated with Lovenox ®; test: Neutralizing Lovenox activity in blood from patients treated with Lovenox (anti-Factor Xa assay); type: biochemical, human; details: Peptide 12 μg/ml
Outline: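 Blood came from consenting volunteers already on Lovenox® therapy. Neutralizing peptides were tested as a dose response from 1–60 μg/ml. Each point is mean ± SD of triplicate analyses on one patient's blood sample.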

[2] = tested on: unfractionated heparin (thrombin-induced clot formation); test: Thrombin neutralization assay: clotting time of citrated plasma in the presence of unfractionated heparin; type: biochemical, human; details: for Time for clot formation: UFH 0.5 IU/ml
Experimental: It was determined whether heparin-binding peptides of the invention can neutralize unfractionated heparin using the thrombin neutralization assay. The six peptides that were synthesized and used in this Example are: (ARKKAAKA)3VLVLVLVL (SEQ ID NO:5); (ARKKAAKA)(A16)(ARKKAAKA) (SEQ ID NO:30); (ARKKAAKA)4 (SEQ ID NO:31); (AKKARA)6 (SEQ ID NO:32); (ARKKAAKA)3(ARKKCAKA) (SEQ ID NO:33); and cyclized C(ARKKAAKA)4C (SEQ ID NO:34); Citrated plasma was pipetted into a glass tube. Thrombin was added, the tube was manually rotated, and clotting time was determined by observation of clot formation. Normal clotting time is 19-22 seconds.
As a control, to assess the effect of heparin on clot formation, unfractionated heparin was added to the plasma at 0.5 IU anti-thrombin activity/ml and then thrombin was added. Clotting time in the presence of heparin alone was greater than 3 minutes.
To test the effect of peptides, heparin and six peptides at the concentrations indicated in Table 4 were added to the plasma, the mixture was allowed to stand at room temperature for 1 minute, and thrombin was added. The time for the clot to form is indicated. Experiments were performed using plasma from three volunteers—A, B, and C.

[3] = tested on: anti-Factor Xa Activity of the Low Molecular Weight Heparin Lovenox ®; test: Anti-Factor Xa assay (Stachrom Heparin kit): neutralization of Lovenox in citrate or plasma in vitro; type: biochemical, human; details: for Lovenox ® Neutralized: Lovenox 0.7 U/ml
Outline: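 Chromogenic anti-Factor Xa kit run with UFH, enoxaparin (Lovenox) or danaparoid (Orgaran) in 0.32% citrate or citrated plasma from three volunteers. Heparin/ATIII complex formed, peptide added, then Factor Xa and dye substrate; absorbance at 405 nm, inversely proportional to remaining anti-Factor Xa activity.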

platelets = test: Platelet aggregation with aggregation-inducing agents; type: cell-based, human; details: 12 μg/ml; Lovenox 0.5 U/ml; collagen, ADP, ristocetin, epinephrine, SFFLRN, A23187
Experimental: Plasma from six volunteers was tested with various aggregation inducing agents, at several concentrations of each agent, and with six different peptides of the invention. The effect of heparin-binding peptides of the invention on platelet aggregation was determined using standard procedures as previously described. The six peptides which were synthesized and tested were: (ARKKAAKA)4 (SEQ ID NO:31), ARKKAAKA(A16)ARKKAAKA (SEQ ID NO:30), (ARKKAAKA)3ARKKCAKA (SEQ ID NO:33), (ARKKAAKA)3VLVLVLVL (SEQ ID NO:5), C(ARKKAAKA)4C (SEQ ID NO:34), and (AKKARA)6 (SEQ ID NO:32).
The aggregation-inducing agents tested were: collagen, adenosine diphosphate (ADP), ristocetin, epinephrine, the thrombin receptor peptide SFFLRN, and calcium ionophore A23187. Platelets were subjected to protamine, or to SEQ ID NOS:31, 33, 30, 5, 34, or 32 at 12 μg/ml, and Lovenox® at 0.5 U/ml. Platelet aggregation in response to agonists was monitored and percent aggregation was determined over a five minute interval.
The agonist was added after equilibration of the platelets for one minute.

[4] = blood of Lovenox-treated Patient Number 1
[5] = blood of Lovenox-treated Patient Number 2
[6] = blood of Lovenox-treated Patient Number 3
[7] = blood of Lovenox-treated Patient Number 4
[8] = blood of Lovenox-treated Patient Number 5
[9] = blood of Lovenox-treated Patient Number 8
[10] = blood of Lovenox-treated Patient Number 9
[11] = blood of Lovenox-treated Patient Number 10
[12] = blood of Lovenox-treated Patient Number 11

| Compound | Lovenox ® Neutralized [1, 4] [U/ml] | Lovenox ® Neutralized [1, 5] [U/ml] | Lovenox ® Neutralized [1, 6] [U/ml] | Lovenox ® Neutralized [1, 7] [U/ml] | Lovenox ® Neutralized [1, 8] [U/ml] | Lovenox ® Neutralized [1, 9] [U/ml] | Lovenox ® Neutralized [1, 10] [U/ml] | Lovenox ® Neutralized [1, 11] [U/ml] | Lovenox ® Neutralized [1, 12] | effectiveness in thrombin neutralization assay [2] | Lovenox ® Neutralized ([3]; 1 μg/ml Peptide, A Plasma) [U/ml] | Lovenox ® Neutralized ([3]; 1 μg/ml Peptide, B Plasma) [U/ml] | Lovenox ® Neutralized ([3]; 1 μg/ml Peptide, C Plasma) [U/ml] | Lovenox ® Neutralized ([3]; 1 μg/ml Peptide, Citrate) [U/ml] | Lovenox ® Neutralized ([3]; 6 μg/ml Peptide, A Plasma) [U/ml] | Lovenox ® Neutralized ([3]; 6 μg/ml Peptide, B Plasma) [U/ml] | Lovenox ® Neutralized ([3]; 6 μg/ml Peptide, C Plasma) [U/ml] | Lovenox ® Neutralized ([3]; 6 μg/ml Peptide, Citrate) [U/ml] | Lovenox ® Neutralized ([3]; 12 μg/ml Peptide, A Plasma) [U/ml] | Lovenox ® Neutralized ([3]; 12 μg/ml Peptide, B Plasma) [U/ml] | further results |
| --- | --- | --- | --- | --- | --- | --- | --- | --- | --- | --- | --- | --- | --- | --- | --- | --- | --- | --- | --- | --- | --- |
| C[C@@H]1NC(=O)[C@H](C)NC(=O)[C@H](CCCCN)NC(=O)[C@H](CCCCN)NC(=O)[C@H](CCCNC(=N)N)NC(=O)[C@H](C)NC(=O)[C@H](C)NC(=O)[C@H](CCCCN)NC(=O)[C@H](C)NC(=O)[C@H](C)NC(=O)[C@H](CCCCN)NC(=O)[C@H](CCCCN)NC(=O)[C@H](CCCNC(=N)N)NC(=O)[C@H](C)NC(=O)[C@@H](N)CSSC[C@@H](C(=O)O)NC(=O)[C@H](C)NC(=O)[C@H](CCCCN)NC(=O)[C@H](C)NC(=O)[C@H](C)NC(=O)[C@H](CCCCN)NC(=O)[C@H](CCCCN)NC(=O)[C@H](CCCNC(=N)N)NC(=O)[C@H](C)NC(=O)[C@H](C)NC(=O)[C@H](CCCCN)NC(=O)[C@H](C)NC(=O)[C@H](C)NC(=O)[C@H](CCCCN)NC(=O)[C@H](CCCCN)NC(=O)[C@H](CCCNC(=N)N)NC(=O)[C@H](C)NC(=O)[C@H](C)NC(=O)[C@H](CCCCN)NC1=O [C(ARKKAAKA)4C, cyclized C(ARKKAAKA)4C] (H-CARKKAAKAARKKAAKAARKKAAKAARKKAAKAC-OH; disulfide 1-34) | 0.164 | 0.132 | 0.119 | 0.337 | 0.230 | 0.163 | 0.418 | 0.302 | 0.175 U/ml | effective | 0.034 ± 0.019 | 0.022 ± 0.009 | 0.011 ± 0.005 | 0.058 ± 0.039 | 0.102 ± 0.012 | 0.126 ± 0.039 | 0.092 ± 0.014 | 0.245 ± 0.064 | 0.213 ± 0.048 | 0.251 ± 0.098 | Time for clot formation ([2]; 0.35 μg peptide/0.1 ml, plasma A): 37.67 ± 5.25 s; Time for clot formation ([2]; 0.40 μg peptide/0.1 ml, plasma A): 29.00 ± 0.82 s; Time for clot formation ([2]; 0.40 μg peptide/0.1 ml, plasma B): 47.67 ± 8.34 s; Time for clot formation ([2]; 0.40 μg peptide/0.1 ml, plasma C): 56.33 ± 1.70 s; Time for clot formation ([2]; 0.50 μg peptide/0.1 ml, plasma A): 23.67 ± 2.05 s; Time for clot formation ([2]; 0.50 μg peptide/0.1 ml, plasma B): 34.33 ± 1.25 s; Time for clot formation ([2]; 0.50 μg peptide/0.1 ml, plasma C): 43.00 ± 2.45 s; Lovenox ® Neutralized ([3]; 12 μg/ml Peptide, C Plasma): 0.218 ± 0.047 U/ml; Lovenox ® Neutralized ([3]; 12 μg/ml Peptide, Citrate): 0.474 ± 0.024 U/ml; Lovenox ® Neutralized ([3]; 60 μg/ml Peptide, A Plasma): 0.496 ± 0.016 U/ml; Lovenox ® Neutralized ([3]; 60 μg/ml Peptide, B Plasma): 0.506 ± 0.012 U/ml; Lovenox ® Neutralized ([3]; 60 μg/ml Peptide, C Plasma): 0.522 ± 0.009 U/ml; Lovenox ® Neutralized ([3]; 60 μg/ml Peptide, Citrate): 0.554 ± 0.023 U/ml; Lovenox ® Neutralized ([3]; 120 μg/ml Peptide, A Plasma): 0.551 ± 0.031 U/ml; Lovenox ® Neutralized ([3]; 120 μg/ml Peptide, B Plasma): 0.538 ± 0.013 U/ml; Lovenox ® Neutralized ([3]; 120 μg/ml Peptide, C Plasma): 0.592 ± 0.019 U/ml; Lovenox ® Neutralized ([3]; 120 μg/ml Peptide, Citrate): 0.525 ± 0.028 U/ml; anti-LMWH effect in citrate compared with plasma ([3]; Table 2A): greater anti-LMWH effect in citrate than in plasma; effect on platelet aggregation (platelets): no significant inhibition or enhancement of aggregation |
| ARKKAAKAAAAAAAAAAAAAAAAAARKKAAKA [ARKKAAKA(A16)ARKKAAKA, reference compound] | 0 | 0.011 | 0.055 | 0.035 | 0.005 | 0 | 0.009 | 0.062 | 0.007 + U/ml | ineffective | 0.010 ± 0.008 | 0.027 ± 0.014 | 0.0 | 0.020 ± 0.023 | 0.018 ± 0.018 | 0.042 ± 0.041 | 0.0 | 0.013 ± 0.007 | 0.025 ± 0.011 | 0.042 ± 0.023 | Time for clot formation ([2]; 6.0 μg peptide/0.1 ml, plasma B): 55.00 ± 4.08 s; Time for clot formation ([2]; 6.5 μg peptide/0.1 ml, plasma A): 76.33 ± 4.19 s; Time for clot formation ([2]; 6.5 μg peptide/0.1 ml, plasma C): 48.67 ± 7.72 s; Time for clot formation ([2]; 7.0 μg peptide/0.1 ml, plasma A): 61.00 ± 2.94 s; Time for clot formation ([2]; 7.0 μg peptide/0.1 ml, plasma B): 85.67 ± 3.30 s; Time for clot formation ([2]; 7.0 μg peptide/0.1 ml, plasma C): 47.67 ± 3.77 s; Time for clot formation ([2]; 7.5 μg peptide/0.1 ml, plasma A): 58.67 ± 1.89 s; Time for clot formation ([2]; 7.5 μg peptide/0.1 ml, plasma C): 180.0 ± 0.00 s; Lovenox ® Neutralized ([3]; 12 μg/ml Peptide, C Plasma): 0.008 ± 0.012 U/ml; Lovenox ® Neutralized ([3]; 12 μg/ml Peptide, Citrate): 0.010 ± 0.007 U/ml; Lovenox ® Neutralized ([3]; 60 μg/ml Peptide, A Plasma): 0.018 ± 0.020 U/ml; Lovenox ® Neutralized ([3]; 60 μg/ml Peptide, B Plasma): 0.061 ± 0.067 U/ml; Lovenox ® Neutralized ([3]; 60 μg/ml Peptide, C Plasma): 0.015 ± 0.012 U/ml; Lovenox ® Neutralized ([3]; 60 μg/ml Peptide, Citrate): 0.017 ± 0.014 U/ml; Lovenox ® Neutralized ([3]; 120 μg/ml Peptide, A Plasma): 0.043 ± 0.020 U/ml; Lovenox ® Neutralized ([3]; 120 μg/ml Peptide, B Plasma): 0.092 ± 0.042 U/ml; Lovenox ® Neutralized ([3]; 120 μg/ml Peptide, C Plasma): 0.003 ± 0.002 U/ml; Lovenox ® Neutralized ([3]; 120 μg/ml Peptide, Citrate): 0.069 ± 0.035 U/ml; effect in the anti-Factor Xa assay for Lovenox ([3]; in both citrate and plasma): minimal effects; effect on platelet aggregation (platelets): no significant inhibition or enhancement of aggregation |
